Measured values: PubChem BioAssay (NCI)
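Dose response: 5 concentrations. Exposure: 48 h. Format: 96-well plates. Endpoint: linear interpolation; highest concentration if not reached. TGI: concentration producing complete growth inhibition.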

Assays:
Assay in all cases: DTP human tumour cell line panel, 48 h
SNB-75 CNS = system: SNB-75 CNS
NCI/ADR-RES ovarian = system: NCI/ADR-RES ovarian
HCC-2998 colon = system: HCC-2998 colon
HL-60(TB) leukemia = system: HL-60(TB) leukemia
MDA-N = system: MDA-N
HOP-62 NSCLC = system: HOP-62 NSCLC
T-47D breast = system: T-47D breast
RXF 393 renal = system: RXF 393 renal
HCT-15 colon = system: HCT-15 colon
NCI-H522 lung = system: NCI-H522 lung
OVCAR-4 ovarian = system: OVCAR-4 ovarian
BT-549 breast = system: BT-549 breast
EKVX NSCLC = system: EKVX NSCLC
KM12 colon = system: KM12 colon
SF-295 CNS = system: SF-295 CNS
MOLT-4 leukemia = system: MOLT-4 leukemia
UACC-257 melanoma = system: UACC-257 melanoma
SK-MEL-28 melanoma = system: SK-MEL-28 melanoma
SF-268 CNS = system: SF-268 CNS
K-562 leukemia = system: K-562 leukemia
CCRF-CEM leukemia = system: CCRF-CEM leukemia
OVCAR-3 ovarian = system: OVCAR-3 ovarian
A498 renal = system: A498 renal
SN12C renal = system: SN12C renal
UACC-62 melanoma = system: UACC-62 melanoma
LOX IMVI melanoma = system: LOX IMVI melanoma
SK-OV-3 ovarian = system: SK-OV-3 ovarian
SW-620 colon = system: SW-620 colon
SK-MEL-2 melanoma = system: SK-MEL-2 melanoma
OVCAR-5 ovarian = system: OVCAR-5 ovarian
CAKI-1 renal = system: CAKI-1 renal
MALME-3M melanoma = system: MALME-3M melanoma
NCI-H226 lung = system: NCI-H226 lung
SK-MEL-5 melanoma = system: SK-MEL-5 melanoma
SR leukemia = system: SR leukemia
TK-10 renal = system: TK-10 renal
UO-31 renal = system: UO-31 renal
HCT-116 colon = system: HCT-116 colon
NCI-H460 lung = system: NCI-H460 lung
OVCAR-8 ovarian = system: OVCAR-8 ovarian
SNB-19 CNS = system: SNB-19 CNS
NCI-H23 lung = system: NCI-H23 lung
U251 CNS = system: U251 CNS
ACHN renal = system: ACHN renal
HT29 colon = system: HT29 colon
DU-145 prostate = system: DU-145 prostate
MCF7 breast = system: MCF7 breast
MDA-MB-231 breast = system: MDA-MB-231 breast
M14 melanoma = system: M14 melanoma
PC-3 prostate = system: PC-3 prostate
A549 NSCLC = system: A549 NSCLC
RPMI-8226 leukemia = system: RPMI-8226 leukemia
HOP-92 NSCLC = system: HOP-92 NSCLC
COLO 205 colon = system: COLO 205 colon
HS 578T breast = system: HS 578T breast
IGROV1 ovarian = system: IGROV1 ovarian
786-0 renal = system: 786-0 renal
MDA-MB-435 = system: MDA-MB-435
SF-539 CNS = system: SF-539 CNS

Cc1ccc(C(N)=Nc2ccccc2)cc1
TGI (SNB-75 CNS): > 100 µM
TGI (NCI/ADR-RES ovarian): > 100 µM
TGI (HCC-2998 colon): 33.7 µM
TGI (HL-60(TB) leukemia): > 100 µM
TGI (MDA-N): > 100 µM
TGI (HOP-62 NSCLC): > 100 µM
TGI (T-47D breast): > 100 µM
TGI (RXF 393 renal): > 100 µM
TGI (HCT-15 colon): > 100 µM
TGI (NCI-H522 lung): > 100 µM
TGI (OVCAR-4 ovarian): > 100 µM
TGI (BT-549 breast): > 100 µM
TGI (EKVX NSCLC): > 100 µM
TGI (KM12 colon): > 100 µM
TGI (SF-295 CNS): > 100 µM
TGI (MOLT-4 leukemia): > 100 µM
TGI (UACC-257 melanoma): > 100 µM
TGI (SK-MEL-28 melanoma): > 100 µM
TGI (SF-268 CNS): > 100 µM
TGI (K-562 leukemia): > 100 µM
TGI (CCRF-CEM leukemia): > 100 µM
TGI (OVCAR-3 ovarian): > 100 µM
TGI (A498 renal): > 100 µM
TGI (SN12C renal): > 100 µM
TGI (UACC-62 melanoma): > 100 µM
TGI (LOX IMVI melanoma): > 100 µM
TGI (SK-OV-3 ovarian): > 100 µM
TGI (SW-620 colon): > 100 µM
TGI (SK-MEL-2 melanoma): > 100 µM
TGI (OVCAR-5 ovarian): > 100 µM
TGI (CAKI-1 renal): > 100 µM
TGI (MALME-3M melanoma): > 100 µM
TGI (NCI-H226 lung): > 100 µM
TGI (SK-MEL-5 melanoma): > 100 µM
TGI (SR leukemia): > 100 µM
TGI (TK-10 renal): > 100 µM
TGI (UO-31 renal): > 100 µM
TGI (HCT-116 colon): > 100 µM
TGI (NCI-H460 lung): > 100 µM
TGI (OVCAR-8 ovarian): > 100 µM
TGI (SNB-19 CNS): > 100 µM
TGI (NCI-H23 lung): > 100 µM
TGI (U251 CNS): > 100 µM
TGI (ACHN renal): > 100 µM
TGI (HT29 colon): > 100 µM
TGI (DU-145 prostate): > 100 µM
TGI (MCF7 breast): > 100 µM
TGI (MDA-MB-231 breast): > 100 µM
TGI (M14 melanoma): > 100 µM
TGI (PC-3 prostate): > 100 µM
TGI (A549 NSCLC): > 100 µM
TGI (RPMI-8226 leukemia): > 100 µM
TGI (HOP-92 NSCLC): > 100 µM
TGI (COLO 205 colon): 42.2 µM
TGI (HS 578T breast): > 100 µM
TGI (IGROV1 ovarian): > 100 µM
TGI (786-0 renal): > 100 µM
TGI (MDA-MB-435): > 100 µM
TGI (SF-539 CNS): > 100 µM

CC(C)=CCC/C(C)=C/CC/C(C)=C/CCN(C)CCO
TGI (SNB-75 CNS): 21 µM
TGI (NCI/ADR-RES ovarian): 26.7 µM
TGI (HCC-2998 colon): 4.38 µM
TGI (HL-60(TB) leukemia): 3.68 µM
TGI (MDA-N): 14.3 µM
TGI (HOP-62 NSCLC): 19.6 µM
TGI (T-47D breast): 7.4 µM
TGI (RXF 393 renal): 24.9 µM
TGI (HCT-15 colon): 13.7 µM
TGI (NCI-H522 lung): 16.5 µM
TGI (OVCAR-4 ovarian): 29.1 µM
TGI (BT-549 breast): 26.3 µM
TGI (EKVX NSCLC): 32.3 µM
TGI (KM12 colon): 7.77 µM
TGI (SF-295 CNS): 12.1 µM
TGI (MOLT-4 leukemia): 11.1 µM
TGI (UACC-257 melanoma): 21.7 µM
TGI (SK-MEL-28 melanoma): 25.1 µM
TGI (SF-268 CNS): 27 µM
TGI (K-562 leukemia): 3.24 µM
TGI (CCRF-CEM leukemia): 8.65 µM
TGI (OVCAR-3 ovarian): 28.9 µM
TGI (A498 renal): 29.3 µM
TGI (SN12C renal): 25.5 µM
TGI (UACC-62 melanoma): 27.1 µM
TGI (LOX IMVI melanoma): 14.3 µM
TGI (SK-OV-3 ovarian): 29.6 µM
TGI (SW-620 colon): 18.4 µM
TGI (SK-MEL-2 melanoma): 28.1 µM
TGI (OVCAR-5 ovarian): 21.1 µM
TGI (CAKI-1 renal): 19.2 µM
TGI (MALME-3M melanoma): 8.33 µM
TGI (NCI-H226 lung): 38.7 µM
TGI (SK-MEL-5 melanoma): 3.44 µM
TGI (SR leukemia): 21.4 µM
TGI (TK-10 renal): 19.4 µM
TGI (UO-31 renal): 25.3 µM
TGI (HCT-116 colon): 16.3 µM
TGI (NCI-H460 lung): 14.5 µM
TGI (OVCAR-8 ovarian): 27.3 µM
TGI (SNB-19 CNS): 22.8 µM
TGI (NCI-H23 lung): 27.6 µM
TGI (U251 CNS): 12.7 µM
TGI (ACHN renal): 23.9 µM
TGI (HT29 colon): 23.3 µM
TGI (DU-145 prostate): 25.9 µM
TGI (MCF7 breast): 7.13 µM
TGI (MDA-MB-231 breast): 23.9 µM
TGI (M14 melanoma): 3.81 µM
TGI (PC-3 prostate): 18.2 µM
TGI (A549 NSCLC): 23.3 µM
TGI (RPMI-8226 leukemia): 11 µM
TGI (HOP-92 NSCLC): 9.9 µM
TGI (COLO 205 colon): 3.25 µM
TGI (HS 578T breast): 6.57 µM
TGI (IGROV1 ovarian): 8.34 µM
TGI (786-0 renal): 4.83 µM
TGI (MDA-MB-435): 17.4 µM
TGI (SF-539 CNS): 14.8 µM
